The structures appear in SMILES notation. Read-outs that look alike come from different tables or passages of the source.

This test has as its system cancer cells. Nature of the test: MTS cell growth inhibition assay (72 hours). In kind it is cell-based. As for the experimental part:
Cells were maintained at 37° C., 5% CO2 in DMEM media supplemented with 1% fetal bovine serum, penicillin/streptomycin and fungizone (Invitrogen). Cells were seeded into 96-well tissue culture plates at 3000 per well and cultured at 37° C. for 18 hours. Test compounds were dissolved and diluted to 300× in DMSO then further diluted 1:40 in DMEM before addition to cells (1:7.5 dilution). Cells were incubated with test compounds for 72 hours followed by incubation with tetrazolium compound (3-(4,5-dimethylthiazol-2-yl)-5-(3-carboxymethoxyphenyl)-2-(4-sulfophenyl)-2H-tetrazolium, inner salt; MTS) and the electron coupling reagent, phenazine methosulfate (PMS) for 4 hours. […] The ability of compounds to inhibit cell growth in this assay is correlated with the reduction of dehydrogenase enzyme activity found in metabolically active cells. The measurement of the absorbance of the formazan was assessed using an ENVISION™ (Perkin Elmer) microplate reader at 492 nm. The calculated IC50 value is the concentration of the test compound that causes a 50% decrease in the absorbance. […] A=>79% inhibition, B=>50 to 79% inhibition, C=<50% inhibition.

Where [1] appears, read: Homo sapiens, DLD-1, 72 h, DLD-1 cells, read-out: DLD-1 MTS 72 hr at 10 μM.
Where [2] appears, read: Homo sapiens, KATO III, 72 h, KATO III cells, read-out: KATO III MTS 72 hr at 10 μM.
Where [3] appears, read: Homo sapiens, MDA-MB-231, 72 h, MDA-MB-231 cells, read-out: MDA-MB-231 MTS 72 hr at 10 μM.
[4] abbreviates: Homo sapiens, NCI-H1299, 72 h, NCI-H1299 cells, read-out: NCI-H1299 MTS 72 hr at 10 μM.
[5] abbreviates: PaCa-2, 72 h, PACA-2 cells, read-out: PACA-2 MTS 72 hr at 10 μM.

In the case of `Nc1nc(NC2Cc3ccccc3N(S(=O)(=O)c3ccc(-c4ccccc4)cc3)C2)c2cn[nH]c2n1` (stereo not drawn) [Compound 16, N4-(1-(biphenyl-4-ylsulfonyl)-1,2,3,4-tetrahydroquinolin-3-yl)-1H-pyrazolo[3,4-d]pyrimidine-4,6-diamine], the inhibition at 10 µM under setting [1] is 50 to 79%; the inhibition at 10 µM under setting [2] is 50 to 79%; the inhibition at 10 µM under setting [3] is < 50%; the inhibition at 10 µM under setting [4] is < 50%; the inhibition at 10 µM under setting [5] was in the range of 50 to 79%.

Take `Nc1nc(NC2Cc3ccccc3N(S(=O)(=O)c3ccc(F)cc3)C2)c2cn[nH]c2n1` (stereo not drawn) [Compound 20, N4-(1-(4-fluorophenylsulfonyl)-1,2,3,4-tetrahydroquinolin-3-yl)-1H-pyrazolo[3,4-d]pyrimidine-4,6-diamine]: the inhibition at 10 µM under setting [1] was < 50%; the inhibition at 10 µM under setting [2] was < 50%; the inhibition at 10 µM under setting [3] was < 50%; the inhibition at 10 µM under setting [4] was < 50%; the inhibition at 10 µM under setting [5] is < 50%.

As for `Nc1nc(NC2Cc3ccccc3N(S(=O)(=O)Cc3ccccc3)C2)c2cn[nH]c2n1` (stereo not drawn) [Compound 21, N4-(1-(benzylsulfonyl)-1,2,3,4-tetrahydroquinolin-3-yl)-1H-pyrazolo[3,4-d]pyrimidine-4,6-diamine], the inhibition at 10 µM is > 79% under setting [1]; > 79% under setting [2]; 50 to 79% under setting [3]; < 50% under setting [4]; > 79% under setting [5].

Regarding `Cc1ccc(S(=O)(=O)N2CC(Nc3nc(N)nc4[nH]ncc34)Cc3ccccc32)cc1` (stereo not drawn) [Compound 22, N4-(1-tosyl-1,2,3,4-tetrahydroquinolin-3-yl)-1H-pyrazolo[3,4-d]pyrimidine-4,6-diamine], the inhibition at 10 µM was < 50% under setting [1]; < 50% under setting [2]; < 50% under setting [3]; < 50% under setting [4]; < 50% under setting [5].

With `COc1cccc(S(=O)(=O)N2CC(Nc3nc(N)nc4[nH]ncc34)Cc3ccccc32)c1` (stereo not drawn) [Compound 24, N4-(1-(3-methoxyphenylsulfonyl)-1,2,3,4-tetrahydroquinolin-3-yl)-1H-pyrazolo[3,4-d]pyrimidine-4,6-diamine], the inhibition at 10 µM is, setting by setting: under setting [1], < 50%; under setting [2], > 79%; under setting [3], < 50%; under setting [4], < 50%; under setting [5], < 50%.

Consider `Nc1nc(NC2Cc3ccccc3N(S(=O)(=O)c3ccc(Oc4ccccc4)cc3)C2)c2cn[nH]c2n1` (stereo not drawn) [Compound 27, N4-(1-(4-phenoxyphenylsulfonyl)-1,2,3,4-tetrahydroquinolin-3-yl)-1H-pyrazolo[3,4-d]pyrimidine-4,6-diamine], for which the inhibition at 10 µM was > 79% under setting [1]; > 79% under setting [2]; > 79% under setting [3]; 50 to 79% under setting [4]; > 79% under setting [5].

Take `CS(=O)(=O)N1CC(Nc2nc(N)nc3[nH]ncc23)Cc2ccccc21` (stereo not drawn) [Compound 29, N4-(1-(methylsulfonyl)-1,2,3,4-tetrahydroquinolin-3-yl)-1H-pyrazolo[3,4-d]pyrimidine-4,6-diamine]: the inhibition at 10 µM reads like this: under setting [1], < 50%; under setting [2], < 50%; under setting [3], < 50%; under setting [4], < 50%; under setting [5], < 50%.

Turning to `N#Cc1ccc(S(=O)(=O)N2CC(Nc3nc(N)nc4[nH]ncc34)Cc3ccccc32)cc1` (stereo not drawn) [Compound 30, 4-(3-(6-amino-1H-pyrazolo[3,4-d]pyrimidin-4-ylamino)-3,4-dihydroquinolin-1(2H)-ylsulfonyl)benzonitrile], the inhibition at 10 µM under setting [1] was < 50%; the inhibition at 10 µM under setting [2] was < 50%; the inhibition at 10 µM under setting [3] was < 50%; the inhibition at 10 µM under setting [4] was < 50%; the inhibition at 10 µM under setting [5] is < 50%.

Regarding `Nc1nc(NC2Cc3ccccc3N(S(=O)(=O)c3cc(Cl)ccc3Cl)C2)c2cn[nH]c2n1` (stereo not drawn) [Compound 32, N4-(1-(2,5-dichlorophenylsulfonyl)-1,2,3,4-tetrahydroquinolin-3-yl)-1H-pyrazolo[3,4-d]pyrimidine-4,6-diamine], the inhibition at 10 µM under setting [1] lay in the range of 50 to 79%; the inhibition at 10 µM under setting [2] was > 79%; the inhibition at 10 µM under setting [3] was < 50%; the inhibition at 10 µM under setting [4] was < 50%; the inhibition at 10 µM under setting [5] is < 50%.

As to `Nc1nc(NC2Cc3ccccc3N(S(=O)(=O)c3ccc4ccccc4c3)C2)c2cn[nH]c2n1` (stereo not drawn) [Compound 34, N4-(1-(naphthalen-2-ylsulfonyl)-1,2,3,4-tetrahydroquinolin-3-yl)-1H-pyrazolo[3,4-d]pyrimidine-4,6-diamine], the inhibition at 10 µM is < 50% under setting [1]; < 50% under setting [2]; < 50% under setting [3]; < 50% under setting [4]; < 50% under setting [5].

Regarding `Nc1nc(NC2Cc3ccccc3N(S(=O)(=O)c3ccc(Cl)cc3)C2)c2cn[nH]c2n1` (stereo not drawn) [Compound 35, N4-(1-(4-chlorophenylsulfonyl)-1,2,3,4-tetrahydroquinolin-3-yl)-1H-pyrazolo[3,4-d]pyrimidine-4,6-diamine], the inhibition at 10 µM under setting [1] is < 50%; the inhibition at 10 µM under setting [2] was < 50%; the inhibition at 10 µM under setting [3] was < 50%; the inhibition at 10 µM under setting [4] is < 50%; the inhibition at 10 µM under setting [5] is < 50%.

On to `Nc1nc(NC2Cc3ccccc3N(S(=O)(=O)c3cc(Cl)cc(Cl)c3)C2)c2cn[nH]c2n1` (stereo not drawn) [Compound 36, N4-(1-(3,5-dichlorophenylsulfonyl)-1,2,3,4-tetrahydroquinolin-3-yl)-1H-pyrazolo[3,4-d]pyrimidine-4,6-diamine], for which the inhibition at 10 µM runs as follows: under setting [1], < 50%; under setting [2], 50 to 79%; under setting [3], < 50%; under setting [4], < 50%; under setting [5], < 50%.

For `Cn1cnc(S(=O)(=O)N2CC(Nc3nc(N)nc4[nH]ncc34)Cc3ccccc32)c1` (stereo not drawn) [Compound 38, N4-(1-(1-methyl-1H-imidazol-4-ylsulfonyl)-1,2,3,4-tetrahydroquinolin-3-yl)-1H-pyrazolo[3,4-d]pyrimidine-4,6-diamine], the inhibition at 10 µM was < 50% under setting [1]; < 50% under setting [2]; < 50% under setting [3]; < 50% under setting [4]; < 50% under setting [5].

In the case of `Nc1nc(NC2Cc3ccccc3N(S(=O)(=O)c3cccc(Br)c3)C2)c2cn[nH]c2n1` (stereo not drawn) [Compound 41, N4-(1-(3-bromophenylsulfonyl)-1,2,3,4-tetrahydroquinolin-3-yl)-1H-pyrazolo[3,4-d]pyrimidine-4,6-diamine], the inhibition at 10 µM reads like this: under setting [1], < 50%; under setting [2], > 79%; under setting [3], < 50%; under setting [4], < 50%; under setting [5], < 50%.

For `Nc1nc(NC2Cc3ccccc3N(S(=O)(=O)c3ccc(C(F)(F)F)cc3)C2)c2cn[nH]c2n1` (stereo not drawn) [Compound 44, N4-(1-(4-(trifluoromethyl)phenylsulfonyl)-1,2,3,4-tetrahydroquinolin-3-yl)-1H-pyrazolo[3,4-d]pyrimidine-4,6-diamine], the inhibition at 10 µM was < 50% under setting [1]; < 50% under setting [2]; < 50% under setting [3]; < 50% under setting [4]; < 50% under setting [5].

Turning to `Nc1nc(NC2Cc3ccccc3N(S(=O)(=O)c3ccc(F)c(F)c3)C2)c2cn[nH]c2n1` (stereo not drawn) [Compound 46, N4-(1-(3,4-difluorophenylsulfonyl)-1,2,3,4-tetrahydroquinolin-3-yl)-1H-pyrazolo[3,4-d]pyrimidine-4,6-diamine], the inhibition at 10 µM under setting [1] was < 50%; the inhibition at 10 µM under setting [2] was < 50%; the inhibition at 10 µM under setting [3] is < 50%; the inhibition at 10 µM under setting [4] is < 50%; the inhibition at 10 µM under setting [5] was < 50%.

Consider `Nc1nc(NC2Cc3ccccc3N(S(=O)(=O)c3cccc(Cl)c3Cl)C2)c2cn[nH]c2n1` (stereo not drawn) [Compound 57, N4-(1-(2,3-dichlorophenylsulfonyl)-1,2,3,4-tetrahydroquinolin-3-yl)-1H-pyrazolo[3,4-d]pyrimidine-4,6-diamine], for which the inhibition at 10 µM under setting [1] was < 50%; the inhibition at 10 µM under setting [2] was < 50%; the inhibition at 10 µM under setting [3] was < 50%; the inhibition at 10 µM under setting [4] is < 50%; the inhibition at 10 µM under setting [5] was < 50%.

As for `CCc1ccc(S(=O)(=O)N2CC(Nc3nc(N)nc4[nH]ncc34)Cc3ccccc32)cc1` (stereo not drawn) [Compound 59, N4-(1-(4-ethylphenylsulfonyl)-1,2,3,4-tetrahydroquinolin-3-yl)-1H-pyrazolo[3,4-d]pyrimidine-4,6-diamine], the inhibition at 10 µM runs as follows: under setting [1], < 50%; under setting [2], < 50%; under setting [3], < 50%; under setting [4], < 50%; under setting [5], < 50%.

For the origin of these results see patent publication US8273754B2, “Substituted 1H-pyrazolo[3,4-D]pyrimidine-6-amine compounds” (ArQule, Inc., priority 2008, dated 2012).
